Data on two compounds can be found in patent US7226791B2, “Polynucleotides encoding novel guanylate binding proteins (GBP's)” (Bristol-Myers Squibb Company, priority 2003, dated 2007).

One series addresses T1, GBP-1 (Homo sapiens, UniProt P32455).
T1 sequence (P32455 1-592): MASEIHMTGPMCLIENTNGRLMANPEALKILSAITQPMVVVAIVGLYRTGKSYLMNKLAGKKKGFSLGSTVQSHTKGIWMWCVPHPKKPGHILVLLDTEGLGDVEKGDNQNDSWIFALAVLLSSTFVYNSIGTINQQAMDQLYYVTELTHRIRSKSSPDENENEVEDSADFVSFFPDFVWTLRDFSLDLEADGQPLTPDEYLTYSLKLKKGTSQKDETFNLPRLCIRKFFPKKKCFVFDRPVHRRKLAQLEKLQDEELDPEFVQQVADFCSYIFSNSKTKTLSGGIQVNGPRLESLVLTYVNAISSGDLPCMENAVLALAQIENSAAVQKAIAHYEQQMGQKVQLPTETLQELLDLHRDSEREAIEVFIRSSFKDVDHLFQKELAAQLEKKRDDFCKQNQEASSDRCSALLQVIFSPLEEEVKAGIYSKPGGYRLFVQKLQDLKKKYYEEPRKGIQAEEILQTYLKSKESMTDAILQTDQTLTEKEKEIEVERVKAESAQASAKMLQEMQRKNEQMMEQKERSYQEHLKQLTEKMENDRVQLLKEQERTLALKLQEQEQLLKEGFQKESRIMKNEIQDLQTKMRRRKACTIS
Particulars: purified GBP-1 protein, GTP hydrolysis; read-out: Km for substrate; cited from earlier work.

A further series relates to GBP-2. As to the kind of experiment: siRNA knockdown of GBP-2 protein expression in Cos-7 cells, myc western blot. In kind it is cell-based. To be noted: Cos-7 cells co-transfected with GBP-2 expression vector, 40 nM siRNA duplex; FIG. 50A. How it is done: To test for knockdown of protein expression using siRNAs, Cos-7 cells were transfected as described herein with expression vectors encoding either GBP-1 or GBP-2 in the presence and absence of 40 nM siRNA duplex specific for either GBP-1 (“1–3”, […], (SEQ ID NO:79), Qiagen, Inc.) or GBP-2 (“582”, […] (SEQ ID NO:80), Sequitur Inc., Natick, Mass.). Approximately 18 hours following transfection, cells were harvested using trypsin, and lysed in RIPA buffer as described previously. Lysates were electrophoresed through 4–20% tris-glycine gels, transferred to nitrocellulose, blocked overnight with 5% non-fat dry milk and 0.3% BSA in Tris-buffered saline, and probed with a mouse monoclonal antibody specific for the myc epitope tag.
For orientation: A western blot detects proteins with antibodies after separation by electrophoresis.

A further series concerns MCP-1. Briefly: TNFα-induced MCP-1 expression in human umbilical vein endothelial cells, ELISA. In kind it is cell-based. To be noted: HUVECs, 100 nM siRNA duplexes, 6 hours 10 ng/ml TNFα; FIG. 50B. How it is done: (§1) In some experiments, human umbilical vein endothelial cells (HUVECs, Clonetics Corp., San Diego, Calif., USA) were transfected using lipofectamine 2000 with 100 nM siRNA duplexes. Cells were cultured overnight, and then stimulated for 6 hours with 10 ng/ml TNFα. Supernatants were analyzed for MCP-1 and IL-8 levels by ELISA (Pharmingen, San Diego, Calif., USA). Cytokine levels were corrected for cell number using the CELL TITER kit (Promega).
Background: An ELISA detects its analyte on a solid surface through an enzyme-linked reagent.

The next series concerns IL-8. Briefly: TNFα-induced IL-8 secretion in human umbilical vein endothelial cells, ELISA. Type of series: cell-based. Particulars: HUVECs, 100 nM siRNA duplexes, 6 hours 10 ng/ml TNFα. How it is done:
as §1

In general, Km refers to the concentration of substrate that gives half-maximal velocity. Take `Nc1nc2c(ncn2[C@@H]2O[C@H](COP(=O)(O)OP(=O)(O)OP(=O)(O)O)[C@@H](O)[C@H]2O)c(=O)[nH]1` [GTP]: the Km on GBP-1 is 470 µM.
In the case of “UUUGUAUUUCCUCCAACAUTT (SEQ ID NO:80) (chemistry not given here; listed as Homo sapiens) [Compound 582]”, the “knockdown of GBP-2 protein expression” value with GBP-2 is “specific knockdown”. Moreover, the “inhibition of TNFα-induced MCP-1 expression” value in the series on MCP-1 is given as “approximately 40%”. Moreover, the “inhibition of IL-8 secretion” value with IL-8 is listed as “failed to inhibit”.
